Article PMC13043538, “In vitro thyroperoxidase inhibition assessment by LC-ICP-MS-based L-tyrosine iodination assay: comparison with Amplex Ultrared assay and its modifications” (Archives of Toxicology, 2026)

Molecular target: T1, human TPO (Homo sapiens, UniProt P07202)
T1 construct: expressed in transfected cells; host or cells: HEK293T (HEK-TPOA7 clone), whole-cell lysate in 0.1% sodium deoxycholate
T1 sequence (P07202 19-933): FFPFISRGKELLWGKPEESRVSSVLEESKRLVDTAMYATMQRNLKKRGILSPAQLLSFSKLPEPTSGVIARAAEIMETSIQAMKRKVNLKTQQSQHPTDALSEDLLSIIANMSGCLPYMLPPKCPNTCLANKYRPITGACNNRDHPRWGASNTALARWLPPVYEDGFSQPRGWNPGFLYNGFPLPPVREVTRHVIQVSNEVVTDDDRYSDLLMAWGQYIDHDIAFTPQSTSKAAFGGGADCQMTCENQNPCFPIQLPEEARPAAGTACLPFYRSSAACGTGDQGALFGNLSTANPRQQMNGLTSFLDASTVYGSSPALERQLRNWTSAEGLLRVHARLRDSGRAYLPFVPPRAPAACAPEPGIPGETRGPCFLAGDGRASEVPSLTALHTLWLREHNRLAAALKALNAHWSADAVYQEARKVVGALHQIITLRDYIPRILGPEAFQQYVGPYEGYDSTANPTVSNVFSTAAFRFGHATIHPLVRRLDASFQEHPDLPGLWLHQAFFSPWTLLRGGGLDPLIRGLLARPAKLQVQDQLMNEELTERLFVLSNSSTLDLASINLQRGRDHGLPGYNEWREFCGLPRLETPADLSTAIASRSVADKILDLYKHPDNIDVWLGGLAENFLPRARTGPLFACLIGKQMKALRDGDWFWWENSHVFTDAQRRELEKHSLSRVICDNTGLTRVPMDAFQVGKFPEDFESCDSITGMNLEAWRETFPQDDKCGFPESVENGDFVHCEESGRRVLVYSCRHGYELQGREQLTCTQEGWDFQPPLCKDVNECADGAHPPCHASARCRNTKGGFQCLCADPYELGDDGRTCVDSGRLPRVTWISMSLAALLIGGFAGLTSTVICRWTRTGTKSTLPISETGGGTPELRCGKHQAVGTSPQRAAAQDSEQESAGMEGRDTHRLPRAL
Test: standard Amplex UltraRed (AUR) TPO assay, HEK-TPOA7 cell lysate, fluorescence
Type: biochemical
Settings: no modification, read-out: IC50 (± standard deviation)
Experimental: Briefly, the cells were washed with phosphate-buffered saline (PBS), scraped, resuspended in PBS, and centrifuged for 5 min at 150 rcf. […] Lysed cells were centrifuged for 5 min at 12,000 rcf to extract the soluble protein fraction. The cell lysates were kept at − 80 °C for longer-term storage.

Oc1cc(Cl)ccc1Oc1ccc(Cl)cc1Cl [TCS, Triclosan]
IC50: 199 µM
